{"source": "patent US10377753B2", "about": "“Substituted 4-azaindoles and their use as GluN2B receptor modulators” (Janssen Pharmaceutica NV, priority 2015, dated 2019)", "note": "Structures can show the parent of a compound that is named as a salt."}
{"target": "cloned human NR1/NR2B ion channels (Homo sapiens (Human), UniProt Q05586+Q13224)", "sequence (Q13224 27-1484, other chains not shown)": "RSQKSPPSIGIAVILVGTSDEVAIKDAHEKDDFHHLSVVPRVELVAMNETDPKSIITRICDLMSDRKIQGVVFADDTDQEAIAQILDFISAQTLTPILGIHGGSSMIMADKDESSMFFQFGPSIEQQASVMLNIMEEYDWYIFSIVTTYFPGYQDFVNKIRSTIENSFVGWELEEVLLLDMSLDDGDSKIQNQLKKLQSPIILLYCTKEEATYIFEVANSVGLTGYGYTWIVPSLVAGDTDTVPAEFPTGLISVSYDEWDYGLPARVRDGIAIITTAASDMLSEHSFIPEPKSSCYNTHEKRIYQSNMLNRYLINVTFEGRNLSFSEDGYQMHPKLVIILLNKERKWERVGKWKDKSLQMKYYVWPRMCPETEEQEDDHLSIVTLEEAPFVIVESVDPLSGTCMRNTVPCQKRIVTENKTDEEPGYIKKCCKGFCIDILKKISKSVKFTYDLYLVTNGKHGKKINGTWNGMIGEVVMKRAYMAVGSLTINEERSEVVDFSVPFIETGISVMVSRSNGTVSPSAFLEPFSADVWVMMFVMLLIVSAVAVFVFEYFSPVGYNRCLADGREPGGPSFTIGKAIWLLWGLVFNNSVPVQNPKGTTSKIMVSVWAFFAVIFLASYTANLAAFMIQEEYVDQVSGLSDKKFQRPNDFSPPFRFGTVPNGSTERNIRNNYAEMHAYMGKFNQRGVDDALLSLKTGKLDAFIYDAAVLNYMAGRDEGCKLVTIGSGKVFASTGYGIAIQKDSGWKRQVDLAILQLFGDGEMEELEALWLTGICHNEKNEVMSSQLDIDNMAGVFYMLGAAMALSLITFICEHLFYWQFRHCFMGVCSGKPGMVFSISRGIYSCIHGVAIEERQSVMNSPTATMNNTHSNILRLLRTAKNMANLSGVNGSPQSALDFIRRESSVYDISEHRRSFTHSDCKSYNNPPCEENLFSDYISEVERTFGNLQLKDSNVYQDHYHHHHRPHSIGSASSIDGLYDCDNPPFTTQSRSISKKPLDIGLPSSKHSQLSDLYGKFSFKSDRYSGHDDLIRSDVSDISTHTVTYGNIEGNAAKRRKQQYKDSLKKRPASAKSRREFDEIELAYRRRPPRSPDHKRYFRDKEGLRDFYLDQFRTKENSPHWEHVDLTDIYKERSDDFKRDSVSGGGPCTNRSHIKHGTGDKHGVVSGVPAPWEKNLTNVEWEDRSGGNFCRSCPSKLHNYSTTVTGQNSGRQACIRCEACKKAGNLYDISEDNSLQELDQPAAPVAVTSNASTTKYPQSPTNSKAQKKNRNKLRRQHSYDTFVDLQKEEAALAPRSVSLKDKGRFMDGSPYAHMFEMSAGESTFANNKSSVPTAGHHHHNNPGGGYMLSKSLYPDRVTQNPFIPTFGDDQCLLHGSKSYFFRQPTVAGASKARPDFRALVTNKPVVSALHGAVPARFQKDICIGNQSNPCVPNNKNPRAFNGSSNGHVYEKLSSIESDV", "assay": "HNR2BC: effects of test articles on cloned human NR1/NR2B ion channels expressed in mammalian cells (FLIPR calcium flux)", "format": "cell-based", "details": "cloned human NR1/NR2B ion channels, Table 5", "in_short": "(§1)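 Compounds were added to dye-loaded cells for 5 min with fluorescence monitored for agonism, followed by co-agonists (glutamate ~EC80, glycine 10 μM saturating) for 5 min. Cells stably expressed inducible human NR1/NR2B, and the buffer was pH 7.4. The FLIPR Ca2+ flux signal was normalized against control wells.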", "units": {"IC50": "nM"}}
{"smiles": "O=C(Cn1ccc2ncc(-c3ccc(F)c(F)c3)cc21)N1CCCC1", "note": "[Example 367, 2-[6-(3,4-Difluorophenyl)pyrrolo[3,2-b]pyridin-1-yl]-1-pyrrolidin-1-yl-ethanone]", "IC50": 50.1}
{"smiles": "Cc1csc(-c2cnc3ccn(CC(=O)N4CC(F)(F)C4)c3c2)c1", "note": "[Example 368, 1-(3,3-Difluoroazetidin-1-yl)-2-[6-(4-methyl-2-thienyl)pyrrolo[3,2-b]pyridin-1-yl]ethanone]", "IC50": 25.1}
{"smiles": "Cc1csc(-c2cnc3ccn(CC(=O)N4CCCC4)c3c2)c1", "note": "[Example 369, 2-[6-(4-Methyl-2-thienyl)pyrrolo[3,2-b]pyridin-1-yl]-1-pyrrolidin-1-yl-ethanone]", "IC50": 20}
{"smiles": "Cc1csc(-c2cnc3ccn(CC(=O)N4CC(F)C4)c3c2)c1", "note": "[Example 370, 1-(3-Fluoroazetidin-1-yl)-2-[6-(4-methyl-2-thienyl)pyrrolo[3,2-b]pyridin-1-yl]ethanone]", "IC50": 31.6}
{"smiles": "O=C(Cn1ccc2ncc(-c3cc(F)c(F)c(F)c3)cc21)N1CC(F)C1", "note": "[Example 371, 1-(3-Fluoroazetidin-1-yl)-2-[6-(3,4,5-trifluorophenyl)pyrrolo[3,2-b]pyridin-1-yl]ethanone]", "IC50": 15.8}
{"smiles": "O=C(Cn1ccc2ncc(-c3ccc(Cl)s3)cc21)N1CC(F)C1", "note": "[Example 372, 2-[6-(5-Chloro-2-thienyl)pyrrolo[3,2-b]pyridin-1-yl]-1-(3-fluoroazetidin-1-yl)ethanone]", "IC50": 15.8}
{"smiles": "O=C(Cn1ccc2ncc(-c3ccc(Cl)s3)cc21)N1CCC1", "note": "[Example 373, 1-(Azetidin-1-yl)-2-[6-(5-chloro-2-thienyl)pyrrolo[3,2-b]pyridin-1-yl]ethanone]", "IC50": 20}
{"smiles": "O=C(Cn1cc(Cl)c2ncc(-c3ccc(F)c(F)c3F)cc21)N1CC(F)C1", "note": "[Example 374, 2-[3-Chloro-6-(2,3,4-trifluorophenyl)pyrrolo[3,2-b]pyridin-1-yl]-1-(3-fluoroazetidin-1-yl)ethanone]", "IC50": 20}
{"smiles": "CN(C)C(=O)Cn1ccc2ncc(-c3cc(F)c(F)c(F)c3)cc21", "note": "[Example 375, N,N-Dimethyl-2-[6-(3,4,5-trifluorophenyl)pyrrolo[3,2-b]pyridin-1-yl]acetamide]", "IC50": 12.6}
{"smiles": "CN(C)C(=O)Cn1ccc2ncc(-c3cc(F)cc(F)c3)cc21", "note": "[Example 376, 2-[6-(3,5-Difluorophenyl)pyrrolo[3,2-b]pyridin-1-yl]-N,N-dimethyl-acetamide]", "IC50": 20}
{"smiles": "CN(C)C(=O)Cn1ccc2ncc(-c3cccc(C(F)F)c3)cc21", "note": "[Example 377, 2-[6-[3-(Difluoromethyl)phenyl]pyrrolo[3,2-b]pyridin-1-yl]-N,N-dimethyl-acetamide]", "IC50": 10}
{"smiles": "Cc1ccc(-c2cnc3ccn(CC(=O)N4CCC4)c3c2)s1", "note": "[Example 380, 1-(Azetidin-1-yl)-2-[6-(5-methyl-2-thienyl)pyrrolo[3,2-b]pyridin-1-yl]ethanone]", "IC50": 10}
{"smiles": "O=C(Cn1cc(Cl)c2ncc(-c3ccc(Cl)s3)cc21)N1CCC1", "note": "[Example 381, 1-(Azetidin-1-yl)-2-[3-chloro-6-(5-chloro-2-thienyl)pyrrolo[3,2-b]pyridin-1-yl]ethanone]", "IC50": 15.8}
{"smiles": "O=C(Cn1cc(F)c2ncc(-c3ccc(F)c(F)c3)cc21)N1CCC1", "note": "[Example 382, 1-(Azetidin-1-yl)-2-[6-(3,4-difluorophenyl)-3-fluoro-pyrrolo[3,2-b]pyridin-1-yl]ethanone]", "IC50": 15.8}
{"smiles": "O=C(Cn1cc(F)c2ncc(-c3cc(F)c(F)c(F)c3)cc21)N1CCC1", "note": "[Example 383, 1-(Azetidin-1-yl)-2-[3-fluoro-6-(3,4,5-trifluorophenyl)pyrrolo[3,2-b]pyridin-1-yl]ethanone]", "IC50": 15.8}
{"smiles": "O=C(Cn1cc(Cl)c2ncc(-c3ccc(F)cc3)cc21)C1CC1", "note": "[Example 384, 2-[3-Chloro-6-(4-fluorophenyl)pyrrolo[3,2-b]pyridin-1-yl]-1-cyclopropyl-ethanone]", "IC50": 20}
{"smiles": "O=C(Cn1ccc2ncc(-c3ccsc3)cc21)N1CCC1", "note": "[Example 385, 1-(Azetidin-1-yl)-2-[6-(3-thienyl)pyrrolo[3,2-b]pyridin-1-yl]ethanone trifluoroacetate salt]", "IC50": 20}
{"target": "cloned human NR1/NR2B ion channels (Homo sapiens (Human), UniProt Q05586+Q13224)", "assay": "HNR2BC: effects of test articles on cloned human NR1/NR2B ion channels expressed in mammalian cells (FLIPR calcium flux)", "format": "cell-based", "details": "cloned human NR1/NR2B, Table 5", "in_short": "as §1", "units": {"IC50": "nM"}}
{"smiles": "O=C(Cn1ccc2ncc(-c3ccc(F)cc3)cc21)N1CCC1", "note": "[Example 353, 1-(Azetidin-1-yl)-2-[6-(4-fluorophenyl)pyrrolo[3,2-b]pyridin-1-yl]ethanone]", "IC50": 31.6}
{"smiles": "O=C(Cn1ccc2ncc(-c3ccccc3)cc21)N1CCC1", "note": "[Example 354, 1-(Azetidin-1-yl)-2-(6-phenylpyrrolo[3,2-b]pyridin-1-yl)ethanone]", "IC50": 31.6}
{"smiles": "O=C(Cn1ccc2ncc(-c3cc(F)cc(F)c3)cc21)N1CCC1", "note": "[Example 355, 1-(Azetidin-1-yl)-2-[6-(3,5-difluorophenyl)pyrrolo[3,2-b]pyridin-1-yl]ethanone]", "IC50": 50.1}
{"smiles": "Cc1cccc(-c2cnc3ccn(CC(=O)N4CCC4)c3c2)c1", "note": "[Example 356, 1-(Azetidin-1-yl)-2-[6-(m-tolyl)pyrrolo[3,2-b]pyridin-1-yl]ethanone trifluoroacetate salt]", "IC50": 20}
{"smiles": "O=C(Cn1ccc2ncc(-c3ccc(Cl)c(Cl)c3)cc21)N1CCC1", "note": "[Example 357, 1-(Azetidin-1-yl)-2-[6-(3,4-dichlorophenyl)pyrrolo[3,2-b]pyridin-1-yl]ethanone trifluoroacetate salt]", "IC50": 20}
{"smiles": "O=C(Cn1ccc2ncc(-c3cccc(C(F)(F)F)c3F)cc21)N1CCC1", "note": "[Example 358, 1-(Azetidin-1-yl)-2-[6-[2-fluoro-3-(trifluoromethyl)phenyl]pyrrolo[3,2-b]pyridin-1-yl]ethanone trifluoroacetate salt]", "IC50": 39.8}
{"smiles": "Cc1csc(-c2cnc3ccn(CC(=O)N4CCC4)c3c2)c1", "note": "[Example 359, 1-(Azetidin-1-yl)-2-[6-(4-methyl-2-thienyl)pyrrolo[3,2-b]pyridin-1-yl]ethanone trifluoroacetate salt]", "IC50": 31.6}
{"smiles": "Cc1cc(-c2cnc3c(Cl)cn(CC(=O)N4CCC4)c3c2)ccc1F", "note": "[Example 360, 1-(Azetidin-1-yl)-2-[3-chloro-6-(4-fluoro-3-methyl-phenyl)pyrrolo[3,2-b]pyridin-1-yl]ethanone]", "IC50": 31.6}
{"smiles": "O=C(Cn1ccc2ncc(-c3ccc(F)c(F)c3)cc21)N1CC(F)(F)C1", "note": "[Example 361, 1-(3,3-Difluoroazetidin-1-yl)-2-[6-(3,4-difluorophenyl)pyrrolo[3,2-b]pyridin-1-yl]ethanone]", "IC50": 25.1}
{"smiles": "O=C(Cn1ccc2ncc(-c3cccc(C(F)(F)F)n3)cc21)N1CCC1", "note": "[Example 362, 1-(Azetidin-1-yl)-2-[6-[6-(trifluoromethyl)-2-pyridyl]pyrrolo[3,2-b]pyridin-1-yl]ethanone]", "IC50": 31.6}
{"smiles": "O=C(Cn1ccc2ncc(-c3cc(F)c(F)c(F)c3)cc21)N1CCC1", "note": "[Example 363, 1-(Azetidin-1-yl)-2-[6-(3,4,5-trifluorophenyl)pyrrolo[3,2-b]pyridin-1-yl]ethanone]", "IC50": 79.4}
{"smiles": "CC(C)C(=O)Cn1ccc2ncc(-c3cc(F)cc(F)c3)cc21", "note": "[Example 364, 1-[6-(3,5-Difluorophenyl)pyrrolo[3,2-b]pyridin-1-yl]-3-methyl-butan-2-one]", "IC50": 20}
{"smiles": "O=C(Cn1ccc2ncc(-c3ccc(F)cc3)cc21)C1CCC1", "note": "[Example 365, 1-Cyclobutyl-2-[6-(4-fluorophenyl)pyrrolo[3,2-b]pyridin-1-yl]ethanone]", "IC50": 20}
{"smiles": "CCc1cccc(-c2cnc3ccn(CC(=O)NC4CC4)c3c2)c1", "note": "[Example 366, N-Cyclopropyl-2-[6-(3-ethylphenyl)pyrrolo[3,2-b]pyridin-1-yl]acetamide]", "IC50": 31.6}
